Laboratory results from ChEMBL document CHEMBL3879915, “Methods of inhibiting PRMT5” (2014).

What was measured:
[1] = Antiproliferative activity against human Z138 cells assessed as inhibition of cell viability after 5 days by Cell-Titer Glo assay; format: functional, cell-based; details: Z-138, 120 h
PRMT5/MEP50 complex = PRMT5/MEP50 complex (Homo sapiens, UniProt O14744); experiment: Inhibition of recombinant human fetal brain FLAG-tagged PRMT5/full length human testis 6His-tagged MEP50 expressed in baculovirus infected insect Sf9 cells using human histone H4 (1 to 15 residues) as substrate preincubated for 30 mins followed by [3H]-SAM addition
PRMT5/MEP50 complex, sequence (O14744 whole entry, the tested form may be a part): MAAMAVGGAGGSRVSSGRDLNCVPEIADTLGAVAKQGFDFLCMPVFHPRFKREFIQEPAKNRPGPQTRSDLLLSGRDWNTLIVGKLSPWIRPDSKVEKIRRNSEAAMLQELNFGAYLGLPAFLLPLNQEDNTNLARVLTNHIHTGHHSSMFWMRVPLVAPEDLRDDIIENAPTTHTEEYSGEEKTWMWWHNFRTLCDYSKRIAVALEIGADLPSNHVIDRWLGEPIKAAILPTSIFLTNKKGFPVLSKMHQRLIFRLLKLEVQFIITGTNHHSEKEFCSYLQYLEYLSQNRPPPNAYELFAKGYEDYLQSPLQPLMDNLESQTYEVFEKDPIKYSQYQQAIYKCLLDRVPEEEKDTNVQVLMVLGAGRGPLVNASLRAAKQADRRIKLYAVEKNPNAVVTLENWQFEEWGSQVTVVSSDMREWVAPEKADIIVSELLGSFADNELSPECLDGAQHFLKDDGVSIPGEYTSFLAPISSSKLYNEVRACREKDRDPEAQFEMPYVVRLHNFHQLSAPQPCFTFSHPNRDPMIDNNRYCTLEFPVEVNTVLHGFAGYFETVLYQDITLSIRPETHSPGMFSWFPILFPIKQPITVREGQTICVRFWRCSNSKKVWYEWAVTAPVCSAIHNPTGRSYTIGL
PRMT5/MEP50 complex, sequence (Q9BQA1 whole entry, further chain, the tested form may be a part): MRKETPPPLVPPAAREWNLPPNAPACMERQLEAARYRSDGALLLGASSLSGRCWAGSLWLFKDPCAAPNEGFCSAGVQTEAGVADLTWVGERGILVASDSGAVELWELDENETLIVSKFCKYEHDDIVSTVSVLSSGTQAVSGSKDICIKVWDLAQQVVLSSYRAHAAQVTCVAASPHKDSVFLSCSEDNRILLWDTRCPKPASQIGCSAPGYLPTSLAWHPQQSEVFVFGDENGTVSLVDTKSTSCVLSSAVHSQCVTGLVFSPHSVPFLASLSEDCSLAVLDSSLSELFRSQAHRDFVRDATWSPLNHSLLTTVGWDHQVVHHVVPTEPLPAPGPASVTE

SMILES	EC50 [1]	IC50 (PRMT5/MEP50 complex)
O[C@@H](COc1cccc(CNC2CCCC2)c1)CN1CCc2ccccc2C1	10 to 40 µM	1 to 10 µM
CC(C)n1ccc(-c2ccc(OCC(O)CN3CCc4ccccc4C3)cc2)n1 (stereo unspecified)	> 40 µM	1 to 10 µM
CC(C)n1nccc1-c1ccc(OCC(O)CN2CCc3ccccc3C2)cc1 (stereo unspecified)	> 40 µM	10 to 40 µM
OC(COCC1CCCCC1)CN1CCc2ccccc2C1 (stereo unspecified)	> 40 µM	1 to 10 µM
COc1cccc(COCC(O)CN2CCc3ccccc3C2)c1 (stereo unspecified)	> 40 µM	1 to 10 µM
OC(COC1CCOCC1)CN1CCc2ccccc2C1 (stereo unspecified)	> 40 µM	10 to 40 µM
OC(COCC1CC1)CN1CCc2ccccc2C1 (stereo unspecified)	> 40 µM	1 to 10 µM
CC(C(O)COc1cccc(CNC2CCCC2)c1)N1CCc2ccccc2C1 (stereo unspecified)	> 40 µM	1 to 10 µM
OC(COCc1ccc(OCc2ccccc2)cc1)CN1CCc2ccccc2C1 (stereo unspecified)	> 20 µM	1 to 10 µM
CC(OCC(O)CN1CCc2ccccc2C1)c1cccnc1 (stereo unspecified)	> 40 µM	10 to 40 µM
CN(Cc1ccc(OCC(O)CN2CCc3ccccc3C2)cc1)C1CCCC1 (stereo unspecified)	> 40 µM	1 to 10 µM
CCn1ccnc1COCC(O)CN1CCc2ccccc2C1 (stereo unspecified)	> 40 µM	> 40 µM
OC(COCC1CCCCO1)CN1CCc2ccccc2C1 (stereo unspecified)	> 40 µM	> 40 µM
OC(COc1ccc2c(c1)OCO2)CN1CCc2ccccc2C1 (stereo unspecified)	> 20 µM	1 to 10 µM
OC(COCC1CCCO1)CN1CCc2ccccc2C1 (stereo unspecified)	> 40 µM	10 to 40 µM
OC(COCc1c(Cl)cccc1Cl)CN1CCc2ccccc2C1 (stereo unspecified)	10 to 40 µM	1 to 10 µM
OC(COCC1CCNC1)CN1CCc2ccccc2C1 (stereo unspecified)	> 40 µM	> 40 µM
CN1CCCCC1COCC(O)CN1CCc2ccccc2C1 (stereo unspecified)	> 40 µM	> 40 µM
OC(COc1cccc(CNC2CCCC2)c1)CN1CCc2ccccc2C1 (stereo unspecified)	10 to 40 µM	0.101 to 1 µM
CC(C)(C)OC(=O)N1CCCC(OCC(O)CN2CCc3ccccc3C2)C1 (stereo unspecified)	> 40 µM	1 to 10 µM
COc1cc2c(cc1OC)CN(CC(O)COc1cccc(CNC3CCCC3)c1)CC2 (stereo unspecified)	10 to 40 µM	> 40 µM
CCC1c2ccccc2CCN1CC(O)COc1cccc(-c2ccc3ncn(C)c3c2)c1 (stereo unspecified)	> 20 µM	0.101 to 1 µM
CC(C)(C)OC(=O)N1CC(OCC(O)CN2CCc3ccccc3C2)C1 (stereo unspecified)	> 40 µM	1 to 10 µM
OC(COC1CCNCC1)CN1CCc2ccccc2C1 (stereo unspecified)	> 40 µM	> 40 µM
O=C(NC[C@H](O)CN1CCc2ccccc2C1)c1cccc(NC2CCOCC2)c1	0.101 to 1 µM	< 0.1 µM
OC(COC1CCN(Cc2ccccc2)CC1)CN1CCc2ccccc2C1 (stereo unspecified)	> 40 µM	1 to 10 µM
O=C(Nc1ccccn1)c1cccc(OCC(O)CN2CCc3ccccc3C2)c1 (stereo unspecified)		0.101 to 1 µM

SMILES	EC50 [1]	IC50 (PRMT5/MEP50 complex)
O=C(NCC(O)CN1CCc2ccccc2C1)c1cncc(NC2CCOCC2)c1 (stereo unspecified)		< 0.1 µM
CCOC(=O)CC1c2ccccc2CCN1CC(O)COc1cccc(-c2ccc3ncn(C)c3c2)c1 (stereo unspecified)		1 to 10 µM
Cn1cnc2ccc(-c3cccc(OCC(O)CN4CCc5ccccc5C4(C)C)c3)cc21 (stereo unspecified)		1 to 10 µM
C[C@H](Oc1cccc2cccnc12)C(=O)NC[C@@H](O)CN1CCc2ccccc2C1		1 to 10 µM
CC1(C)CC(Nc2cccc(C(=O)NCC(O)CN3CCc4ccccc4C3)c2)CCO1 (stereo unspecified)		0.101 to 1 µM
O=C1COCCN1CC(O)CN1CCc2ccccc2C1 (stereo unspecified)		1 to 10 µM
COc1cccc2c1CCN(CC(O)COc1cccc(-c3ccc4ncn(C)c4c3)c1)C2 (stereo unspecified)		1 to 10 µM
OC(COc1cccc(-c2ccc(C(F)(F)F)cc2)c1)CN1CCc2ccccc2C1 (stereo unspecified)		1 to 10 µM
CC1CN(CC(O)COc2cccc(CNC3CCCC3)c2)Cc2ccccc21 (stereo unspecified)		> 40 µM
CC1CN(CC(O)COc2cccc(-c3ccc4ncn(C)c4c3)c2)Cc2ccccc21 (stereo unspecified)		1 to 10 µM
O=C(CCc1ccccc1)NCC(O)CN1CCc2ccccc2C1 (stereo unspecified)		1 to 10 µM
COc1c(COCC(O)CN2CCc3ccccc3C2)ccc2ccccc12 (stereo unspecified)		1 to 10 µM
O=C(NC[C@H](O)CN1CCc2ccccc2C1)Oc1ccccc1		1 to 10 µM
O=C(CC1CCCCC1)NC[C@H](O)CN1CCc2ccccc2C1		1 to 10 µM
NC(=O)c1ccc(OCC(=O)NCC(O)CN2CCc3ccccc3C2)cc1 (stereo unspecified)		1 to 10 µM
CC1Cc2ccccc2CN1CC(O)COc1cccc(-c2ccc3ncn(C)c3c2)c1 (stereo unspecified)		1 to 10 µM
OC(COc1ccc(Cc2ccccc2)cc1)CN1CCc2ccccc2C1 (stereo unspecified)		0.101 to 1 µM
CN(CC(O)CN1CCc2ccccc2C1)c1cccc(C(=O)NC2CCOCC2)c1 (stereo unspecified)		10 to 40 µM
CNC(=O)Cn1ccc2cnc(-c3cccc(OCC(O)CN4CCc5ccccc5C4)c3)nc21 (stereo unspecified)		1 to 10 µM
OC(COc1cccc(-c2cccc(Cl)c2)c1)CN1CCc2ccccc2C1 (stereo unspecified)		1 to 10 µM
OC(COCc1ccc(Cl)cc1Cl)CN1CCc2ccccc2C1 (stereo unspecified)		1 to 10 µM
Cn1cnc2nc(-c3cccc(OCC(O)CN4CCc5ccccc5C4)c3)ncc21 (stereo unspecified)		1 to 10 µM
O=C(COC1CCCCC1)NCC(O)CN1CCc2ccccc2C1 (stereo unspecified)		0.101 to 1 µM
CN(C(=O)c1cocn1)c1cccc(OCC(O)CN2CCc3ccccc3C2)c1 (stereo unspecified)		10 to 40 µM
CC(=O)Nc1ncccc1OCC(=O)NCC(O)CN1CCc2ccccc2C1 (stereo unspecified)		> 10 µM
O=C(NC[C@@H](O)CN1CCc2ccccc2C1)Nc1ccccc1		1 to 10 µM
O=C(Cn1ccc2cnc(-c3cccc(OCC(O)CN4CCc5ccccc5C4)c3)nc21)N1CCCC1 (stereo unspecified)		0.101 to 1 µM

SMILES	EC50 [1]	IC50 (PRMT5/MEP50 complex)
O=C1CC(c2ccccc2)CCN1C[C@@H](O)CN1CCc2ccccc2C1 (stereo partly specified)		1 to 10 µM
CC(Oc1ccccc1S(N)(=O)=O)C(=O)NCC(O)CN1CCc2ccccc2C1 (stereo unspecified)		> 50 µM
O=C(CC1CCCCC1)NC[C@@H](O)CN1CCc2ccccc2C1		10 to 50 µM
CC(Nc1cccc(C(=O)NCC(O)CN2CCc3ccccc3C2)c1)C1CCOCC1 (stereo unspecified)		0.101 to 1 µM
Cn1cnc2ccc(-c3cccc(OC[C@H](O)CN4Cc5ccccc5C4)c3)cc21		1 to 10 µM
NS(=O)(=O)c1ccc(OCC(=O)NCC(O)CN2CCc3ccccc3C2)cc1 (stereo unspecified)		1 to 10 µM
O=C(Nc1cccnc1)c1cccc(OCC(O)CN2CCc3ccccc3C2)c1 (stereo unspecified)		1 to 10 µM
Oc1ccc(-c2cccc(OCC(O)CN3CCc4ccccc4C3)c2)cc1F (stereo unspecified)		1 to 10 µM
CN(C)c1cncc(OCC(=O)NCC(O)CN2CCc3ccccc3C2)c1 (stereo unspecified)		1 to 10 µM
OC(COCc1ccc(Cl)cc1)CN1CCc2ccccc2C1 (stereo unspecified)		1 to 10 µM
OC(COC1CCN(c2ccccc2)C1)CN1CCc2ccccc2C1 (stereo unspecified)		1 to 10 µM
Nc1ncccc1OCC(=O)NCC(O)CN1CCc2ccccc2C1 (stereo unspecified)		1 to 10 µM
Oc1ccc(-c2cccc(OCC(O)CN3CCc4ccccc4C3)c2)cc1 (stereo unspecified)		1 to 10 µM
O=c1cccc(CC(O)CN2CCc3ccccc3C2)[nH]1 (stereo unspecified)		10 to 50 µM
OC(COCc1ccncc1)CN1CCc2ccccc2C1 (stereo unspecified)		10 to 40 µM
O=C(Cc1ccccc1)NC[C@H](O)CN1CCc2ccccc2C1		0.101 to 1 µM
COc1cc2c(cc1OC)CN(CC(O)COc1cccc(-c3ccc4ncn(C)c4c3)c1)CC2 (stereo unspecified)		> 40 µM
Cn1cnc2ccc(-c3cccc(OCC(O)CN4Cc5ccccc5C4)c3)cc21 (stereo unspecified)		1 to 10 µM
CS(=O)(=O)Nc1cccnc1OCC(=O)NCC(O)CN1CCc2ccccc2C1 (stereo unspecified)		1 to 10 µM
CN(C(=O)c1cccnc1)c1cccc(OCC(O)CN2CCc3ccccc3C2)c1 (stereo unspecified)		1 to 10 µM
C[C@H](Oc1cccc2cccnc12)C(=O)NC[C@H](O)CN1Cc2ccccc2C1		1 to 10 µM
OC(COc1cccc(-c2cc(Cl)cc(C(F)(F)F)c2)c1)CN1CCc2ccccc2C1 (stereo unspecified)		1 to 10 µM
Cn1cc2cc(-c3cccc(OCC(O)CN4CCc5ccccc5C4)c3)ccc2n1 (stereo unspecified)		1 to 10 µM
OC(COc1cccc(-c2cnccn2)c1)CN1CCc2ccccc2C1 (stereo unspecified)		1 to 10 µM
COc1ccc2c(c1)CN(CC(O)COc1cccc(-c3ccc4ncn(C)c4c3)c1)CC2 (stereo unspecified)		10 to 40 µM
Cn1cnc2ccc(-c3nccc(NCC(O)CN4CCc5ccccc5C4)n3)cc21 (stereo unspecified)		1 to 10 µM
OC(COc1cccc(-c2ccc(Cl)cc2)c1)CN1CCc2ccccc2C1 (stereo unspecified)		1 to 10 µM

SMILES	EC50 [1]	IC50 (PRMT5/MEP50 complex)
Cn1cnc2ccc(-c3cccc(OCC(O)CN4CCc5ccc(Cl)cc5C4)c3)cc21 (stereo unspecified)		1 to 10 µM
CN(C(=O)c1cncn1C)c1cccc(OCC(O)CN2CCc3ccccc3C2)c1 (stereo unspecified)		1 to 10 µM
Cn1cnc2ccc(-c3cccc(OCC(O)CN4CCc5ccccc5C4=O)c3)cc21 (stereo unspecified)		> 40 µM
OC(CCc1cccc(CNC2CCCC2)c1)CN1CCc2ccccc2C1 (stereo unspecified)		10 to 40 µM
O=C(Nc1cccc(OCC(O)CN2CCc3ccccc3C2)c1)c1cnco1 (stereo unspecified)		1 to 10 µM
CN1CC(n2cnc3ccc(-c4ccnc(NCC(O)CN5CCc6ccccc6C5)c4)cc32)C1 (stereo unspecified)		< 0.1 µM
OC(COc1ccc(OCc2ccccc2)cc1)CN1CCc2ccccc2C1 (stereo unspecified)		1 to 10 µM
OC(COc1ccccc1-c1ccno1)CN1CCc2ccccc2C1 (stereo unspecified)		1 to 10 µM
CN(c1cccc(C(=O)NCC(O)CN2CCc3ccccc3C2)c1)C1CCOCC1 (stereo unspecified)		0.101 to 1 µM
CN1CCN(CC(O)CN2CCc3ccccc3C2)C(=O)C1 (stereo unspecified)		> 50 µM
CCOC(=O)C1c2ccccc2CCN1CC(O)COc1cccc(-c2ccc3ncn(C)c3c2)c1 (stereo unspecified)		> 40 µM
O=C(NC[C@@H](O)CN1CCc2ccccc2C1)c1ccccc1		1 to 10 µM
COc1ccc(Cn2cnc3ccc(-c4ccc(OCC(O)CN5Cc6ccccc6C5)cc4)cc32)cc1 (stereo unspecified)		1 to 10 µM
Cn1cnc2ccc(-c3cccc(OCC(O)CN4Cc5ccccc5C(F)(F)C4)c3)cc21 (stereo unspecified)		> 10 µM
O=C(COc1ccc(F)cc1)NCC(O)CN1CCc2ccccc2C1 (stereo unspecified)		1 to 10 µM
OC(COc1cccc(C2CCCCC2)c1)CN1CCc2ccccc2C1 (stereo unspecified)		1 to 10 µM
O=C1CN(Cc2ccccn2)CCN1CC(O)CN1CCc2ccccc2C1 (stereo unspecified)		1 to 10 µM
Cn1ccc2ccc(-c3ccnc(NCC(O)CN4CCc5ccccc5C4)c3)cc21 (stereo unspecified)		< 0.1 µM
O=C(NCC(O)CN1CCc2ccccc2C1)c1cccc(CN2CCOCC2)c1 (stereo unspecified)		0.101 to 1 µM
OC(COc1cccc(CN2CCCCC2)c1)CN1CCc2ccccc2C1 (stereo unspecified)		1 to 10 µM
OC(COc1cccc(-c2ccc(F)cc2)c1)CN1CCc2ccccc2C1 (stereo unspecified)		1 to 10 µM
OC(COc1cccc(-c2cncc(F)c2)c1)CN1CCc2ccccc2C1 (stereo unspecified)		1 to 10 µM
CC(C)(Oc1ccccc1)C(=O)NCC(O)CN1CCc2ccccc2C1 (stereo unspecified)		0.101 to 1 µM
CC1c2ccccc2CCN1CC(O)COc1cccc(CNC2CCCC2)c1 (stereo unspecified)		1 to 10 µM
